Reference: ChEMBL document CHEMBL5055678, “Structure-based drug design of novel and highly potent pyruvate dehydrogenase kinase inhibitors” (Bioorg Med Chem, 2021)

Experiments:
[1] = molecular target: [Pyruvate dehydrogenase (acetyl-transferring)] kinase isozyme 2, mitochondrial (Homo sapiens, UniProt Q15119); assay: Inhibition of human recombinant PDHK2 co-complexed with porcine PDH using sodium pyruvate, coenzymeA and NAD as substrates preincubated with enzyme complex for 45 mins followed by substrates addition and further incubated for 90 mins in presence of ATP at Km concentration by spectrophotometric assay
[2] = molecular target: [Pyruvate dehydrogenase (acetyl-transferring)] kinase isozyme 1, mitochondrial (Homo sapiens, UniProt Q15118); assay: Inhibition of human recombinant PDHK1 co-complexed with porcine PDH using sodium pyruvate, coenzymeA and NAD as substrates preincubated with enzyme complex for 45 mins followed by substrates addition and further incubated for 90 mins by spectrophotometric assay
[3] = molecular target: T1, Branched-chain alpha-ketoacid dehydrogenase kinase (Homo sapiens, UniProt O14874); assay: Inhibition of human recombinant BCKDK incubated for 60 mins in presence of ATP by ADP-Glo reagent based luminescent assay
[4] = molecular target: T2, [Pyruvate dehydrogenase (acetyl-transferring)] kinase isozyme 4, mitochondrial (Homo sapiens, UniProt Q16654); assay: (§1) Inhibition of human recombinant PDHK4 co-complexed with porcine PDH using sodium pyruvate, coenzymeA and NAD as substrates preincubated with enzyme complex for 45 mins followed by substrates addition and further incubated for 90 mins in presence of ATP at Km concentration by spectrophotometric assay
Target sequence in this assay (Q16654 whole entry): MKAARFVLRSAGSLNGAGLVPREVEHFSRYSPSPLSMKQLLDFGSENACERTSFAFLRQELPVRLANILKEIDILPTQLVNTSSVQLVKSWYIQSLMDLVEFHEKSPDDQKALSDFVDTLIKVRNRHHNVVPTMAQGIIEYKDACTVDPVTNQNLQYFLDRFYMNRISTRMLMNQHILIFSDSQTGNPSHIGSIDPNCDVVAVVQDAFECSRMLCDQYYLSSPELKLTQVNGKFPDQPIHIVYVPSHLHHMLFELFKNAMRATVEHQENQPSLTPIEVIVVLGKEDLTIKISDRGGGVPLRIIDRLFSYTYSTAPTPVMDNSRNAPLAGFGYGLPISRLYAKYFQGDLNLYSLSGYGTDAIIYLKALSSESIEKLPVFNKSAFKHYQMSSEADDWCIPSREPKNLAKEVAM

[5] = molecular target: T1, Branched-chain alpha-ketoacid dehydrogenase kinase; assay: Inhibition of human recombinant BCKDK at >100 uM incubated for 60 mins in presence of ATP by ADP-Glo reagent based luminescent assay relative to control
[6] = molecular target: T2, [Pyruvate dehydrogenase (acetyl-transferring)] kinase isozyme 4, mitochondrial; assay: as §1, with “porcine PDH at 30 uM using sodium” for “porcine PDH using sodium”, “spectrophotometric assay relative to control” for “spectrophotometric assay”; conditions: time 135.0 min
Target sequence in this assay (Q16654 whole entry, looked up): as the sequence (Q16654 whole entry) above

Sequence of [Pyruvate dehydrogenase (acetyl-transferring)] kinase isozyme 1, mitochondrial (Q15118 whole entry): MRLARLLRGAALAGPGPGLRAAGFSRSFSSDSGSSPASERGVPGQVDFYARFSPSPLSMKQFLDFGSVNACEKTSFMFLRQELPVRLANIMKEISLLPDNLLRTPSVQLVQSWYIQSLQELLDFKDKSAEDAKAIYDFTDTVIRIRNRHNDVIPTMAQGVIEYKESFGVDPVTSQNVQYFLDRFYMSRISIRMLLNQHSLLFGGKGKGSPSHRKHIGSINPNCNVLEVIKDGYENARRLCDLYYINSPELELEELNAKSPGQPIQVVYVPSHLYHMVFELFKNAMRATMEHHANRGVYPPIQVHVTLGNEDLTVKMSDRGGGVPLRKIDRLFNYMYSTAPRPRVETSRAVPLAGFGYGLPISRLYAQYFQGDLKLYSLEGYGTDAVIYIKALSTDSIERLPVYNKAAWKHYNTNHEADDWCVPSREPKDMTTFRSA

Structure (SMILES)	IC50 [1]	IC50 [2]	IC50 [3]	IC50 [4]	inhibition [5]	inhibition [6]
Cc1ncc2c(n1)[nH]c1c(C3CC3)cccc12	710 nM	5870 nM	> 300000 nM	–	–	–
Cc1nc2[nH]c3c(C4CC4)cccc3c2cc1-c1nnc(CC(C)C)o1	56 nM	–	–	462 nM	–	–
COC(=O)c1cc2c(nc1C)[nH]c1c(C3CC3)cccc12	210 nM	–	–	1540 nM	–	–
Cc1nnc(-c2cc3c(nc2C)[nH]c2c(C4CC4)cccc23)o1	490 nM	–	–	1510 nM	–	–
Cc1nc(N2CCCC2)c2c(n1)[nH]c1c(C3CC3)cccc12	2410 nM	–	–	10300 nM	–	–
Cc1cnc(Cl)nc1-c1ccc(N(Cc2ccccc2)C(=O)c2ccc(O)cc2O)cc1	35 nM	–	–	350 nM	–	–
CC[C@@H]1C[C@H](c2ccc(C(=O)O)[nH]2)CN1c1nc(C)nc2[nH]c3c(C4CC4)cccc3c12	9.2 nM	–	–	40.6 nM	–	–
Cc1nc2[nH]c3c(C4CC4)cccc3c2cc1-c1nnc(C(CC(=O)NCc2ccccc2)C(C)C)o1 (stereo not drawn)	6 nM	–	> 100000 nM	32.9 nM	18%	–
CCc1nnc(-c2cc3c(nc2C)[nH]c2c(C4CC4)cccc23)s1	1490 nM	–	–	6620 nM	–	–
Cc1nc(N2C[C@H](c3ccccc3)C[C@H]2CO)c2c(n1)[nH]c1c(C3CC3)cccc12	1010 nM	–	–	7700 nM	–	–
Cc1nc2[nH]c3c(C4CC4)cccc3c2cc1-c1nnc(C(NC(=O)CCc2ccccc2)C(C)C)o1 (stereo not drawn)	4.2 nM	–	> 100000 nM	24.1 nM	3%	–
CCc1nnc(-c2cc3c(nc2C)[nH]c2c(C4CC4)cccc23)o1	190 nM	–	–	2120 nM	–	–
Cc1nc(N2C[C@H](Cc3ccccc3)C[C@H]2CO)c2c(n1)[nH]c1c(C3CC3)cccc12	73 nM	–	–	1120 nM	–	–
Cc1nc(N2C[C@@H](c3ccc(C(=O)O)[nH]3)C[C@H]2CO)c2c(n1)[nH]c1c(C3CC3)cccc12	5.1 nM	–	–	12.2 nM	–	–
Cc1nc(N2C[C@@](Cc3ccccc3)(C(N)=O)C[C@H]2CO)c2c(n1)[nH]c1c(C3CC3)cccc12	4.5 nM	–	–	260 nM	–	–
Cc1nc(N2CCC[C@H]2CO)c2c(n1)[nH]c1c(C3CC3)cccc12	352 nM	–	–	4530 nM	–	–
Cc1nc2[nH]c3c(C4CC4)cccc3c2cc1-c1ccccn1	1510 nM	–	–	2980 nM	–	–
Cc1nc2[nH]c3c(C4CC4)cccc3c2cc1-c1nnc(C(C)C)o1	130 nM	–	–	592 nM	–	–
Cc1nc(N2CCC[C@@H]2CO)c2c(n1)[nH]c1c(C3CC3)cccc12	8520 nM	–	–	> 30000 nM	–	21%
CNC(=O)c1cc2c(nc1C)[nH]c1c(C3CC3)cccc12	5510 nM	–	–	> 30000 nM	–	35%
Cc1nc2[nH]c3c(C4CC4)cccc3c2cc1-c1ccccc1	5330 nM	–	–	7490 nM	–	–
Cc1nc(N2C[C@@H](c3ccc(C(N)=O)[nH]3)C[C@H]2CO)c2c(n1)[nH]c1c(C3CC3)cccc12	5.5 nM	–	–	17.8 nM	–	–
Cc1nc(N2C[C@](CO)(Cc3ccccc3)C[C@H]2CO)c2c(n1)[nH]c1c(C3CC3)cccc12	14.6 nM	–	–	292 nM	–	–
Cc1nc2[nH]c3c(C4CC4)cccc3c2cc1-c1nnc([C@@H](CC(=O)N[C@H](C)c2ccccc2)C(C)C)o1	17.1 nM	–	–	61.5 nM	–	–
Cc1ccc2c(n1)[nH]c1c(C3CC3)cccc12	2030 nM	–	–	11900 nM	–	–
CCCc1nnc(-c2cc3c(nc2C)[nH]c2c(C4CC4)cccc23)o1	91 nM	–	–	292 nM	–	–
CCC1CCCN1c1nc(C)nc2[nH]c3c(C4CC4)cccc3c12 (stereo not drawn)	758 nM	–	–	8460 nM	–	–
Cc1nc2[nH]c3c(C4CC4)cccc3c2cc1-c1nnc(C(C)C(C)C)o1 (stereo not drawn)	87 nM	–	–	494 nM	–	–
